Reference: ChEMBL document CHEMBL1201862, “PubChem BioAssay data set” (2004)
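1) Cells in 96-well plates. 2) Compound, 48 h, 5 concentrations. 3) Linear interpolation between surrounding doses. 4) Unreached endpoint = highest concentration. At the GI50, growth is halved.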 Activity calls are given as the source filed them. No stated cut-off is given here; in the data, active = GI50 up to about 1.1 µM and inactive = higher.

Assays:
Test in all cases: NCI-60 cell line screen, 48 h
DMS-114 = test system: DMS-114
SF-539 = test system: SF-539
NCI-H522 = test system: NCI-H522
UACC-257 = test system: UACC-257
NCI-H23 = test system: NCI-H23
EKVX = test system: EKVX
SF-295 = test system: SF-295
SNB-19 = test system: SNB-19
U-251 = test system: U-251
786-0 = test system: 786-0
SN12C = test system: SN12C
UACC-62 = test system: UACC-62
KM12 = test system: KM12
PC-3 = test system: PC-3
DU-145 = test system: DU-145
Malme-3M = test system: Malme-3M
OVCAR-5 = test system: OVCAR-5
SK-MEL-2 = test system: SK-MEL-2
ACHN = test system: ACHN
HT-29 = test system: HT-29

Row | SMILES | GI50 (DMS-114) | GI50 (SF-539) | GI50 (NCI-H522) | GI50 (UACC-257) | GI50 (NCI-H23) | GI50 (EKVX) | GI50 (SF-295) | GI50 (SNB-19) | GI50 (U-251) | GI50 (786-0) | GI50 (SN12C) | GI50 (UACC-62) | GI50 (KM12) | GI50 (PC-3) | GI50 (DU-145) | GI50 (Malme-3M) | GI50 (OVCAR-5) | GI50 (SK-MEL-2) | GI50 (ACHN) | GI50 (HT-29)
1 | C=C1C(C)C2C(Cc3ccccc3)NC(=O)C23C(OC(C)=O)C=CC(C)(O)C(=O)C(C)C/C=C/C3C1O (configuration not stated) | 8.71 µM (inactive) | 0.117 µM (active) | 2.43 µM (inactive) | 6.59 µM (inactive) | 12.9 µM (inactive) | 1.8 µM (inactive) | 0.366 µM (active) | 0.217 µM (active) | 0.0925 µM (active) | 0.311 µM (active) | 39.3 µM (inactive) | 3.36 µM (inactive) | 90.8 µM (inactive) | 11.7 µM (inactive) | 28.2 µM (inactive) | 30.5 µM (inactive) | 68.9 µM (inactive) | 6.22 µM (inactive) | 0.889 µM (active) | 
2 | Cc1ccc(S(=O)(=O)Nc2cccc3c(=O)nc[nH]c23)cc1 | 31.2 µM (inactive) | > 100 µM (inactive) | 76.6 µM (inactive) | > 87.5 µM (inactive) | 90.8 µM (inactive) | > 100 µM (inactive) | 82.6 µM (inactive) | > 100 µM (inactive) | > 100 µM (inactive) | > 100 µM (inactive) | > 100 µM (inactive) | > 87.1 µM (inactive) | > 100 µM (inactive) |  |  | > 100 µM (inactive) | > 100 µM (inactive) | > 100 µM (inactive) | 66.8 µM (inactive) | > 100 µM (inactive)
3 | CCN(c1ccccc1)[C@H]1C(=O)N(c2ccc([N+](=O)[O-])cc2)[C@H]1c1ccc(OC)cc1 | > 100 µM (inactive) | 35.2 µM (inactive) | 63.5 µM (inactive) | > 100 µM (inactive) | > 100 µM (inactive) | > 100 µM (inactive) | 52.5 µM (inactive) | > 100 µM (inactive) | > 100 µM (inactive) | > 100 µM (inactive) | 98.6 µM (inactive) | 35.7 µM (inactive) | > 100 µM (inactive) |  |  | > 100 µM (inactive) | > 100 µM (inactive) | > 100 µM (inactive) | > 100 µM (inactive) | > 100 µM (inactive)
4 | Cc1ccc(NC(=O)CC/C(CC(=O)c2ccc(Cl)cc2)=N\NC(=O)C(=O)NN)cc1C | > 100 µM (inactive) | > 100 µM (inactive) | > 100 µM (inactive) | > 100 µM (inactive) | > 100 µM (inactive) | > 100 µM (inactive) | > 100 µM (inactive) | > 100 µM (inactive) | > 100 µM (inactive) | > 100 µM (inactive) | > 100 µM (inactive) | > 100 µM (inactive) | > 100 µM (inactive) |  |  | > 100 µM (inactive) | > 100 µM (inactive) | > 100 µM (inactive) | > 100 µM (inactive) | > 100 µM (inactive)
5 | CCOC(=O)C(Cc1ccc(N=NN(C)C)cc1)NC(=O)CC1c2ccccc2-c2ccccc21 (configuration not stated) | > 100 µM (inactive) | > 100 µM (inactive) | 56.2 µM (inactive) | > 100 µM (inactive) | > 100 µM (inactive) | > 100 µM (inactive) | > 100 µM (inactive) | > 100 µM (inactive) | 39.7 µM (inactive) | 82.4 µM (inactive) | > 100 µM (inactive) | 42.9 µM (inactive) | > 100 µM (inactive) |  |  | > 100 µM (inactive) | > 100 µM (inactive) | > 100 µM (inactive) | 35.6 µM (inactive) | > 100 µM (inactive)
6 | CCOc1ccc(NCc2cc(OC)c(OC)c(OC)c2)cc1 | 0.291 µM (active) | 0.486 µM (active) | 0.333 µM (active) | 20.9 µM (inactive) | 1.24 µM (inactive) | 34.9 µM (inactive) | 0.306 µM (active) | 1.95 µM (inactive) | 0.513 µM (active) | 0.723 µM (active) |  | 0.423 µM (active) | 0.276 µM (active) | 1.5 µM (inactive) | 2.57 µM (inactive) |  |  |  | 10.7 µM (inactive) | 0.366 µM (active)
7 | CCOC(=O)NC1=C(N2CC2)C(=O)C(NC(=O)OCC)=C(N2CC2)C1=O [DIAZIQUONE] | 2.01 µM (inactive) | 1.75 µM (inactive) | 3.14 µM (inactive) | 4.65 µM (inactive) | 1.85 µM (inactive) | 6.37 µM (inactive) | 1.12 µM (active) | 4.11 µM (inactive) | 2.51 µM (inactive) | 1.56 µM (inactive) | 1.36 µM (inactive) | 0.489 µM (active) | 8.81 µM (inactive) | 4.36 µM (inactive) | 1.9 µM (inactive) | 6.49 µM (inactive) | 7.85 µM (inactive) | 5.96 µM (inactive) | 0.82 µM (active) | 7.73 µM (inactive)
